Source: patent US9120749B2, “Quinoline derivatives and MELK inhibitors containing the same” (ONCOTHERAPY SCIENCE, INC., priority 2010, dated 2015)
Where two headings read alike, the source gives them in different places.

How the values were obtained:
MELK = MELK (Homo sapiens, UniProt Q14680); assay: Kinase assay: MELK activity, phosphorylation of FITC-labeled histone H3 peptide measured by IMAP fluorescence polarization; type: biochemical; details: read-out: IC50 (μM) (kinase assay)
Method in brief: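 Fluorescence polarization was measured 0.5 h (room temperature) after quenching with threefold volume of progressive binding solution. Test compounds from 12.5 mM DMSO stocks were assayed at 1% DMSO.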

HT-1197 cells = assay: Cell-based assay: anti-proliferative activity, Cell Counting Kit-8, 72 hours (HT-1197, negative control without MELK expression); details: Homo sapiens, HT1197, 72 h, HT1197 cells (negative control, no MELK expression), 72 hours
Method in brief: (§1)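 Proliferation read with Cell Counting Kit-8 after 72 hours of inhibitor treatment, from seeding of 2,000–3,000 cells/well. Lines: T47D, A549, BT-549; HT-1197, lacking MELK by western blot, served as negative control. IC50 derived.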

A549 cells = assay: Cell-based assay: anti-proliferative activity, Cell Counting Kit-8, 72 hours (A549); details: Homo sapiens, A549, 72 h, 72 hours
Method in brief: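 A549 cells were seeded in 96-well plates and exposed to candidate inhibitors for 72 hours. Cell growth was then measured with Cell Counting Kit-8, and IC50 values were calculated from the resulting growth data.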

T47D cells = assay: Cell-based assay: anti-proliferative activity, Cell Counting Kit-8, 72 hours (T47D); details: Homo sapiens, T47D, 72 h
Method in brief: as §1

DU4475 = assay: Cell-based assay: anti-proliferative activity, Cell Counting Kit-8, 72 hours (DU4475); details: Homo sapiens, DU-4475, DU4475 cells
[1] = 50 micro-M ATP, FITC-labeled histone H3 peptide substrate, IMAP fluorescence polarization

MELK, sequence (Q14680 whole entry, looked up): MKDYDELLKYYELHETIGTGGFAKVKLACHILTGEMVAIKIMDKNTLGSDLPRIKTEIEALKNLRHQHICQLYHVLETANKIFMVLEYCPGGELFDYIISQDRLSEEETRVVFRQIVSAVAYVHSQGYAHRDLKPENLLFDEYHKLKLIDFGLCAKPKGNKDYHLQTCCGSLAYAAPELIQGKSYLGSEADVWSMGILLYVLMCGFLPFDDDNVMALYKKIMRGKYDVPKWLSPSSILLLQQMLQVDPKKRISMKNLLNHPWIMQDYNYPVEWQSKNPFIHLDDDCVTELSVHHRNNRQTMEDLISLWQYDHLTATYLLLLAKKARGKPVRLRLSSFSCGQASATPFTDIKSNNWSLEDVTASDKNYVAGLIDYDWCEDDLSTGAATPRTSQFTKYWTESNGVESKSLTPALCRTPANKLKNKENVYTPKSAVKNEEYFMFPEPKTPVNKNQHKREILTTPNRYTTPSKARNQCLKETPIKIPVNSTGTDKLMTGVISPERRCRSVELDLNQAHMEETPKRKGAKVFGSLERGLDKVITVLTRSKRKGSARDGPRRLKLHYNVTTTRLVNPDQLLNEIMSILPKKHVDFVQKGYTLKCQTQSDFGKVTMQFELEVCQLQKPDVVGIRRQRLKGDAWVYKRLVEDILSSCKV

Structure (SMILES) | IC50 (MELK) | IC50 (HT-1197 cells) | IC50 (A549 cells) | IC50 (T47D cells) | IC50 (DU4475) | IC50 (MELK; [1])
NCc1ccc(Nc2c(C(=O)C3CC3)cnc3ccc(-c4cc(F)c(O)c(Cl)c4)cc23)cc1 [Example 504, {4-[4-(Aminomethyl)phenylamino]-6-(3-chloro-5-fluoro-4-hydroxyphenyl)quinolin-3-yl}(cyclopropyl)methanone] | 0.0089 µM | 0.71 µM | 0.081 µM | 0.084 µM | 0.019 µM | 
COc1cc(-c2ccc3ncc(C(=O)C4CC4)c(-c4cnc(N5CCN(C)CC5)nc4)c3c2)cc(Cl)c1O [Example 475, (6-(3-chloro-4-hydroxy-5-methoxyphenyl)-4-(2-(4-methylpiperazin-1-yl)pyrimidin-5-yl)quinolin-3-yl)(cyclopropyl)methanone] | 0.072 µM | 4.7 µM | 0.79 µM | 0.53 µM | 1.9 µM | 
COc1cc(-c2ccc3ncc(C(=O)C4CC4)c(Nc4ccc(CN)cc4)c3c2)cc(Cl)c1O [Example 506, (4-(4-(aminomethyl)phenylamino)-6-(3-chloro-4-hydroxy-5-methoxyphenyl)quinolin-3-yl)(cyclopropyl)methanone] | 0.0032 µM | 0.74 µM | 0.18 µM | 0.15 µM | 0.13 µM | 
NC[C@H]1CC[C@H](Nc2c(C(=O)C3CC3)cnc3ccc(-c4cc(Cl)c(O)c(Cl)c4)cc23)CC1 [Example 495, {4-[trans-4-(Aminomethyl)cyclohexylamino]-6-(3,5-dichloro-4-hydroxyphenyl)quinolin-3-yl}(cyclopropyl)methanone] | 0.0029 µM | 3.9 µM | 0.35 µM | 0.045 µM | 0.018 µM | 
NCc1ccc(Nc2c(C(=O)C3CC3)cnc3ccc(-c4cc(Cl)c(O)c(Cl)c4)cc23)cc1 [Example 507, {4-[4-(Aminomethyl)phenylamino]-6-(3,5-dichloro-4-hydroxyphenyl)quinolin-3-yl}(cyclopropyl)methanone] | 0.0038 µM | 0.58 µM | 0.059 µM | 0.094 µM | 0.018 µM | 
COc1cc(-c2ccc3ncc(C(=O)C(C)C)c(N[C@H]4CC[C@H](N)CC4)c3c2)cc(Cl)c1O [Example 502, 1-(4-((trans-4-aminocyclohexyl)amino)-6-(3-chloro-4-hydroxy-5-methoxyphenyl)quinolin-3-yl)-2-methylpropan-1-one] | 0.007 µM | 0.31 µM | 0.1 µM | 0.045 µM | 0.041 µM | 
CN(C)C[C@H]1CC[C@H](Nc2c(S(C)(=O)=O)cnc3ccc(-c4cc(Cl)c(O)c(Cl)c4)cc23)CC1 [Example 420, 2,6-dichloro-4-(4-((1R,4R)-4-((dimethylamino)methyl)cyclohexylamino)-3-(methylsulfonyl)quinolin-6-yl)phenol] |  | 2.5 µM | 0.69 µM | 0.47 µM | 0.14 µM | 0.0023 µM
NC[C@H]1CC[C@H](Nc2c(C(=O)C3CC3)cnc3ccc(-c4cc(F)c(O)c(Cl)c4)cc23)CC1 [Example 501, {4-[trans-4-(Aminomethyl)cyclohexylamino]-6-(3-chloro-5-fluoro-4-hydroxyphenyl)quinolin-3-yl}(cyclopropyl)methanone] | 0.046 µM | 1.2 µM | 0.57 µM | 0.061 µM | 0.031 µM | 
COc1cc(-c2ccc3ncc(C(=O)C4CC4)c(N4CCN(CCN5CCCC5)CC4)c3c2)cc(Cl)c1O [Example 394, (6-(3-chloro-4-hydroxy-5-methoxyphenyl)-4-(4-(2-(pyrrolidin-1-yl)ethyl)piperazin-1-yl)quinolin-3-yl)(cyclopropyl)methanone] |  | 5.3 µM | 0.25 µM | 0.4 µM | 0.24 µM | 0.0018 µM
O=C(c1cnc2ccc(-c3cc(Cl)c(O)c(Cl)c3)cc2c1Nc1ccc(N2CCNCC2)nc1)C1CC1 [Example 409, Cyclopropyl{6-(3,5-dichloro-4-hydroxyphenyl)-4-[6-(piperazin-1-yl)pyridin-3-ylamino]quinolin-3-yl}methanone] |  | 1.6 µM | 0.26 µM | 0.074 µM | 0.098 µM | 0.0017 µM
CN(C)C[C@H]1CC[C@H](Nc2c(S(C)(=O)=O)cnc3ccc(-c4cc(F)c(O)c(Cl)c4)cc23)CC1 [Example 423] |  | 2.4 µM | 0.93 µM | 0.42 µM | 0.31 µM | 0.0063 µM
CN(C)Cc1ccc(Nc2c(S(C)(=O)=O)cnc3ccc(-c4cc(Cl)c(O)c(Cl)c4)cc23)cc1 [Example 400, 2,6-dichloro-4-(4-((4-((dimethylamino)methyl)phenyl)amino)-3-(methylsulfonyl)quinolin-6-yl)phenol] |  | 1.8 µM | 0.3 µM | 0.23 µM | 0.07 µM | 0.0034 µM
C[S+]([O-])c1cnc2ccc(-c3cc(F)c(O)c(Cl)c3)cc2c1N[C@H]1CC[C@H](N)CC1 (some centres unmarked) [Example 498] | 0.046 µM | 10 µM | 10 µM | 10 µM | 2.8 µM | 
O=C(c1cnc2ccc(-c3cc(F)c(O)c(Cl)c3)cc2c1Nc1ccc(Cn2ccnc2)cc1)C1CC1 [Example 489, (4-(4-((1H-imidazol-1-yl)methyl)phenylamino)-6-(3-chloro-5-fluoro-4-hydroxyphenyl)quinolin-3-yl)(cyclopropyl)methanone] | 0.019 µM | 5.1 µM | 1.4 µM | 1.1 µM | 0.97 µM | 
COc1cc(-c2ccc3ncc(C(=O)C4CC4)c(Nc4cnc(N5CCNCC5)nc4)c3c2)cc(Cl)c1O [Example 503, (6-(3-chloro-4-hydroxy-5-methoxyphenyl)-4-(2-(piperazin-1-yl)pyrimidin-5-ylamino)quinolin-3-yl)(cyclopropyl)methanone] | 0.0047 µM | 1.1 µM | 0.37 µM | 0.24 µM | 0.46 µM | 
CCN(CC)C1CCC(Nc2c(C(=O)C3CCCC3)cnc3ccc(-c4cc(F)c(O)c(Cl)c4)cc23)CC1 (centres unmarked) [Example 386, (6-(3-chloro-5-fluoro-4-hydroxyphenyl)-4-(4-(diethylamino)cyclohexylamino)quinolin-3-yl)(cyclopentyl)methanone] |  | 0.78 µM | 0.4 µM | 0.41 µM | 0.29 µM | 0.0092 µM
CN(C)Cc1ccc(Nc2c(S(C)(=O)=O)cnc3ccc(-c4cc(F)c(O)c(Cl)c4)cc23)cc1 [Example 399, 2-chloro-4-(4-(4-((dimethylamino)methyl)phenylamino)-3-(methylsulfonyl)quinolin-6-yl)-6-fluorophenol] |  | 1.9 µM | 0.47 µM | 0.27 µM | 0.16 µM | 0.016 µM
O=C(c1cnc2ccc(-c3cc(F)c(O)c(Cl)c3)cc2c1Nc1cnc(N2CCNCC2)nc1)C1CC1 [Example 496, (6-(3-chloro-5-fluoro-4-hydroxyphenyl)-4-((2-(piperazin-1-yl)pyrimidin-5-yl)amino)quinolin-3-yl)(cyclopropyl)methanone] | 0.0048 µM | 0.64 µM | 0.079 µM | 0.036 µM | 0.068 µM | 
CC(=O)c1cnc2ccc(-c3cc(F)c(O)c(Cl)c3)cc2c1N1CCN(C(=O)CN(C)C)CC1 [Example 484, 1-(4-(3-acetyl-6-(3-chloro-5-fluoro-4-hydroxyphenyl)quinolin-4-yl)piperazin-1-yl)-2-(dimethylamino)ethanone] | 0.0069 µM | 17 µM | 3.4 µM | 1.1 µM | 0.58 µM | 
O=C(c1cnc2ccc(-c3cc(Cl)c(O)c(Cl)c3)cc2c1-c1ccc(OCCN2CCCC2)cc1)C1CC1 [Example 485, cyclopropyl(6-(3,5-dichloro-4-hydroxyphenyl)-4-(4-(2-(pyrrolidin-1-yl)ethoxy)phenyl)quinolin-3-yl)methanone] | 0.0056 µM | 10 µM | 1.2 µM | 0.77 µM | 1.2 µM | 
CN(C)CC(=O)N1CC2CC1CN2c1c(C(=O)C2CC2)cnc2ccc(-c3ccc(O)c(Cl)c3)cc12 (centres unmarked) [Example 464] |  | 17 µM | 5.5 µM | 6.6 µM | 3.4 µM | 0.051 µM
O=C(c1cnc2ccc(-c3cc(Cl)c(O)c(Cl)c3)cc2c1Nc1cnc(N2CCNCC2)nc1)C1CC1 [Example 497, cyclopropyl(6-(3,5-dichloro-4-hydroxyphenyl)-4-((2-(piperazin-1-yl)pyrimidin-5-yl)amino)quinolin-3-yl)methanone] | 0.0021 µM | 0.97 µM | 0.12 µM | 0.052 µM | 0.056 µM | 
CN1CCN(c2ccc(Nc3c(C(=O)C4CC4)cnc4ccc(-c5cc(Cl)c(O)c(Cl)c5)cc34)cn2)CC1 [Example 472] | 0.023 µM | 5.7 µM | 0.18 µM | 0.3 µM | 0.11 µM | 
CCOc1cc(-c2ccc3ncc(C(=O)C4CC4)c(N4CCC(CN(C)C)CC4)c3c2)cc(Cl)c1O [Example 457] |  | 2.4 µM | 0.14 µM | 0.22 µM | 0.21 µM | 0.0024 µM
CN(C)CC1CCN(c2c([S+](C)[O-])cnc3ccc(-c4ccc(O)c(Cl)c4)cc23)CC1 (centres unmarked) [Example 466] |  | 6.7 µM | 1.9 µM | 0.67 µM | 1.1 µM | 0.016 µM
